Laboratory results published in patent US5229409A, “6-substituted-tetrahydrobenz[cd]indoles” (Eli Lilly and Company, priority 1991, dated 1993).

How the values were obtained:
[1] = biological target: T1, 5-HT1A receptor (Rattus norvegicus, UniProt P19327); assay: [3H]8-OH-DPAT binding to 5-HT1A sites in hippocampal membranes; parameters: species or system rat (male Sprague-Dawley); conditions: [3H]8-OH-DPAT 1.0 nM, pH 7.4, 37° C
T1 construct: the brains were rapidly chilled and dissected to obtain the hippocampi; from tissue; host or cells: hippocampi of male Sprague-Dawley rats (150-250 g), washed membranes
T1 sequence (P19327 1-422): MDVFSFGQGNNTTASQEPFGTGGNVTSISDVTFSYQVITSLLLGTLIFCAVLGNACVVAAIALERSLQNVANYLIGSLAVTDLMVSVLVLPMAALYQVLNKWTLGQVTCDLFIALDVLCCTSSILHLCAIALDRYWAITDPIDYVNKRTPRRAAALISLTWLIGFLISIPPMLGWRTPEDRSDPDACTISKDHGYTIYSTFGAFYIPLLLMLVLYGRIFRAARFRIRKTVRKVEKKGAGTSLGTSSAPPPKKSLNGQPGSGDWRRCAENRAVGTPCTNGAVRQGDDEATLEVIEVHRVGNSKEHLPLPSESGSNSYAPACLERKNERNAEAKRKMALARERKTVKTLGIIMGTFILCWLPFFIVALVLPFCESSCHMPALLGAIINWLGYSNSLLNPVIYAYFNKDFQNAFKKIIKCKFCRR
Procedure: The affinities of the compounds at the central […] described by Taylor, et al., (J. Pharmacol. Exp. Ther. 236:118-125, 1986). Membranes for the binding assay were prepared from male Sprague-Dawley rats (150-250 g). The animals were killed by decapitation, and the brains were rapidly chilled and dissected to obtain the hippocampi. The hippocampi were either prepared that day or stored frozen (-70° C.) until the day of preparation. Membranes were prepared by homogenizing the tissue in 40 volumes of ice-cold Tris-HCl buffer (50 mM, pH 7.4 at 22° C.) using a Techmar Tissumizer (setting 65 for 15 sec), and the homogenate was centrifuged at 39800 xg for 10 min. The resulting pellet then resuspended in the same buffer, and the centrifugation and resuspension process was repeated three additional times to wash the membranes. Between the second and third washes the resuspended membranes were incubated for 10 min at 37° C. to facilitate the removal of endogenous ligands. The final pellet was resuspended in 67 mM Tris-HCl, pH 7.4, to a concentration of 2 mg of tissue original wet weight/200 μl. This homogenate was stored frozen (-70° C.) until the day of the binding assay. […] The assay tubes were incubated for 10 min at 37° C, and the contents were then rapidly filtered through GF/B filters (pretreated with 0.5% polyethylenimine), followed by four one-mL washes with ice cold buffer. The radioactivity trapped by the filters was quantitated by liquid scintillation spectrometry, and specific [^3 H]8-OH-DPAT binding to the 5-HT1A sites was defined as the difference between [^3 H]8-OH-DPAT bound in the presence and absence of 10 μM 5-HT.
The affinity of the particular compound at the 5-HT1A receptor is expressed as IC50 value, i.e., the concentration required to inhibit 50% of the binding. The IC50 values were determined from 12-point competition curves using nonlinear regression (SYSTAT, SYSTAT, INC., Evanston, Ill.).

[2] = system: rats; assay: death of treated rats in the in vivo 5-hydroxyindole/corticosterone experiment; parameters: species or system rat (male albino); conditions: 3 mg/kg s.c.
Procedure: In another experiment certain compounds of the Examples were evaluated to determine ability to affect the 5-hydroxyindoles serotonin and 5-hydroxyindole acetic acid (5HIAA), and serum corticosterone, in vivo. Male albino rats were injected subcutaneously with an aqueous solution of the compound. The pH of the solution was adjusted as necessary to solubilize the compound. A control of the solution without the test compound was similarly injected into a control animal. The rats were decapitated one hour later. Trunk blood was collected and allowed to clot. After centrifugation, serum was stored frozen prior to analysis. The whole brain was removed and frozen on dry ice for storage prior to analysis. The serum corticosterone concentration was measured spectrofluorometrically using the procedure of Solem and Brinck-Johnson, "An Evaluation of a Method for Determination of Free Corticosteroids in Minute Quantities of Mouse Plasma", Scand. J. Clin. Lab. Invest., Suppl. 80, p. 1-14 (1965), incorporated herein by reference. 5-Hydroxyindoleacetic acid (5HIAA) concentration in whole brain was measured by liquid chromatography with electrochemical detection as reported by Fuller and Perry, "Effects of Buspirone and its Metabolite, 1-(2-pyrimidinyl)piperazine, on Brain Monoamines and Their Metabolites in Rats", J. Pharmacol. Exp. Ther., 248, p. 50-56 (1989), incorporated herein by reference.

[3] = system: serotonin; assay: whole brain serotonin concentration in vivo in rats; parameters: species or system rat (male albino); conditions: 5 hrs before sacrifice

Row | Compound | IC50 [1] [nM] | death of treated rats [2] | Serotonin ([3]; 0.1 mg/kg orally) [nmol/g] | Serotonin ([3]; 0.3 mg/kg orally) [nmol/g] | Serotonin ([3]; 1 mg/kg orally) [nmol/g] | Serotonin ([3]; 3 mg/kg orally) [nmol/g]
1 | CCCN(CCC)C1Cc2c[nH]c3ccc(C(C)=O)c(c23)C1 (racemic) [Example 2, (±)-6-Acetyl-4-(di-n-propylamino)-1,3,4,5-tetrahydrobenz[cd]indole] | 0.2 |  |  |  |  | 
2 | CCCN(CCC)[C@H]1Cc2c[nH]c3ccc(C(C)=O)c(c23)C1 [Example 7, (4R)-(+)-6-acetyl-4-(di-n-propylamino)-1,3,4,5-tetrahydrobenz[cd]indole] | 0.22 | dead within one hour |  |  |  | 
3 | CCCN(CCC)[C@@H]1Cc2c[nH]c3ccc(C(C)=O)c(c23)C1 [Example 8, (4S)-(-)-6-acetyl-4-(di-n-propylamino)-1,3,4,5-tetrahydrobenz[cd]indole] | 0.12 |  | 2.77 ± 0.07 | 2.47 ± 0.07 | 2.86 ± 0.07 | 2.68 ± 0.11
4 | CCCN(CCC)[C@H]1Cc2c[nH]c3ccc(C(=O)C(C)C)c(c23)C1 [Example 9, (4R)-(+)-6-(2-methylpropanoyl)-4-(di-n-propylamino)-1,3,4,5-tetrahydrobenz[cd]indole] | 0.16 |  |  |  |  | 
